Paper PMC3609652 (The Biochemical journal, 2013)

Tests used:
[1] = target: IgE^DNP (monoclonal anti-DNP IgE); test: tryptophan fluorescence quenching titration with monovalent hapten; type: binding
[2] = target: IgE^dansyl (monoclonal anti-dansyl IgE, clone 27–74); test: as above; type: binding

Substance	Kd [1]	Kd [2]
DNP	22 ± 2 nM	–
dansyl	–	54 ± 4 nM
